Measured values from patent US4607024A, “Epoxypropylphosphonate salt of jesamycin and pharmaceutical composition containing same” (Schering S.p.A., priority 1983, dated 1986).
Counter-ions that a name gives are not always drawn. Like-named read-outs stand apart in the source and are kept apart here.

Tests used:
[1] = parameters: species or system New Zealand rabbits; settings: rabbit, in vivo, po; for haematic levels of Josamycin at the 6th hour: 6 h
Procedure: The determination of the Josamycin levels was performed both by biological way (Grove, D. C., and Randall, W. A., 1955) and by High Pressure Liquid Chromatography (HPLC).

newborns = experiment: Neonatal investigation (growth and survival of the newborns); type: in vivo; settings: 30 days from birth, versus controls
Solubility in water = type: physicochemical
pregnant rats = experiment: Teratological investigation in pregnant rats; type: in vivo; settings: 50 mg/kg s.c. or 300 mg/kg p.o. daily, 1st to 15th day of pregnancy
in vivo [2] = experiment: in vivo; parameters: species or system Swiss mice of both sexes; settings: mouse, mice
Procedure: (§1) The acute toxicity of the compound of the invention was determined on mice and rats (Swiss mice of both sexes and Wistar rats of both sexes), after oral and intravenous administration of the compound of the invention. It was expressed as an LD50 value, calculated according to the method of Lichtfield and Wilcoxon. The obtained intravenous values were 418 mg/kg in rats and 386 mg/kg in mice.

[3] = Absorption, haematic and tissue levels (general statement); type: in vivo
in vivo [4] = experiment: in vivo; parameters: species or system Wistar rats of both sexes; settings: rat, rats
Procedure: as §1

male Wistar rats = experiment: Chronic toxicity, 3 months; type: in vivo; settings: 250 mg/kg daily oral or 50 mg/kg daily subcutaneous, body weight, haematic crasis, urinary elimination, biochemical parameters, anatomo-pathology
Procedure: Three groups of male Wistar rats (average weight: 155 g) were used in this experiment. A first group received a daily dosage of 250 mg/kg of the compound to be tested by oral route, a second group received a daily amount of 50 mg/kg of the same substance by subcutaneous route, a third group (controls) received nothing. The experiment was carried on for 3 consecutive months.
Since the beginning, as well as during and after the treatment, the animals were constantly monitored with respect to the increase in body weight, the haematic crasis, the urinary elimination and various biochemical parameters. At the end of the treatment, all the animals were sacrificed and subjected to anatomo-pathological investigations.

pregnant rabbits = experiment: Teratological investigation in pregnant rabbits; type: in vivo; settings: 50 mg/kg s.c. or 300 mg/kg p.o. daily, 7th to 15th day of pregnancy
[5] = test system: Josamycin-sensitive bacteria; experiment: Antibacterial spectrum in vitro, agar dilution method; type: cell-based; settings: versus Josamycin
[6] = test system: Josamycin-sensitive bacteria; experiment: Antibacterial spectrum in vivo, infected mice; settings: versus Josamycin
[7] = test system: Josamycin-sensitive bacteria; experiment: Antibacterial spectrum (general statement); settings: versus Josamycin
[8] = Toxicity (general statement)
[9] = oral, could not be determined, no deaths up to 5000 mg/kg, read-out: oral LD50

Compound | haematic levels of Josamycin at the 6th hour [1] [µg/mL] | growth and survival of the newborns (newborns) | solubility in water (Solubility in water) | alteration of the normal embrional or fetal development (pregnant rats) | LD50 (in vivo [2]; intravenous, read-out: LD50) [mg/kg] | LD50 (in vivo [2]; [9]) [mg/kg] | absorption ([3]; oral route) | duration of tissue and haematic levels ([3]; oral route) | tissue and haematic levels relative to equivalent amounts of Josamycin ([3]; oral, versus free base and propionate) | haematic levels of Josamycin relative to equivalent dosages of Josamycin ([3]; versus free base and propionate) | duration of haematic levels [1] | LD50 (in vivo [4]; intravenous, read-out: LD50) [mg/kg] | LD50 (in vivo [4]; [9]) [mg/kg] | alteration of toxic character (male Wistar rats) | alteration of the normal embrional or fetal development (pregnant rabbits) | antibacterial spectrum [5] | antibacterial spectrum [6] | antibacterial spectrum [7] | toxicity [8]
CO[C@@H]1[C@@H](O[C@@H]2O[C@H](C)[C@@H](O[C@H]3C[C@@](C)(O)[C@@H](OC(=O)CC(C)C)[C@H](C)O3)[C@H](N(C)C)[C@H]2O)[C@@H](CC=O)C[C@@H](C)[C@@H](O)/C=C/C=C/C[C@@H](C)OC(=O)C[C@H]1OC(C)=O [Josamycin, reference compound] | 0.139 |  |  |  |  |  |  |  |  |  |  |  |  |  |  |  |  |  | 
CO[C@@H]1[C@@H](O[C@@H]2O[C@H](C)[C@@H](O[C@H]3C[C@@](C)(O)[C@@H](OC(=O)CC(C)C)[C@H](C)O3)[C@H](N(C)C)[C@H]2O)[C@@H](CC=O)C[C@@H](C)[C@@H](O)/C=C/C=C/C[C@@H](C)OC(=O)C[C@H]1OC(C)=O [salt of formula (I), salt of the macrolide antibiotic Josamycin with (-)-cis-1,2-epoxypropyl phosphonic acid] | 0.297 | comparable with those of the controls | high solubility in water | did not cause any alteration of the normal embrional or fetal development | 386 | > 5000 | highly absorbed | significantly long lasting | nearly twice | twice | longer lasting | 418 | > 5000 | did not reveal any alteration of toxic character | did not cause any alteration of the normal embrional or fetal development | comparable with that of Josamycin | comparable with that of Josamycin | comparable with that of Josamycin | very little toxic
